These results are taken from patent US12409183B2, “Method of using iloprost for treating frostbite” (BTG INTERNATIONAL INC., priority 2023, dated 2025).

SMILES strings stand for the structures. Read-outs that look alike come from different tables or passages of the source.

Series [1] in a line: IV bag solution stability of fully diluted ready-to-use iloprost (HPLC). The series is classed as physicochemical. The conditions noted are these: condition ia, 25° C./60% RH study; Table 1A. As to the method:
Iloprost 100 μg/mL injection product is administered to patients by IV bag infusion over a period of six hours. The fully diluted ready to use iloprost is prepared in pharmacy cleanroom using sterile preparation standards (USP Chapter <797>) by pharmacy trained and licensed staff. The fully diluted ready to use drug product may be prepared several hours ahead of treatment with storage at ambient conditions or several days ahead of treatment with storage at refrigerated (2-8° C.) conditions. […] The bags are then manually mixed gently to provide a uniform solution. Administration IV bags were prepared and stored at several conditions with routine sampling for assay testing for stability under i) 25° C./60% RH, ii) 5° C. for 5 days to 25° C./60% RH, iii) 5° C. for 8 days to 25° C./60% RH. […] Sampling time for condition […], and 24 h Sampling time for ib): 8 h, 12 h, 48 h, and 96 h Sampling time for condition ii): 5 days (at the end of storage in 2-8° C. stability chamber), 5 days and 8 h, and 5 days and 12 h Sampling time for condition iii): 8 days (at the end of storage in 2-8° C. stability chamber), 8 days and 8 h, and 8 days and 12 h Sample Analysis: Samples were analyzed by HPLC using a validated method (validation protocol not shown). […] The % Initial (initial concentration) of each stored sample was determined per the equation below: […]

The subject of series [2] is severe frostbite. The conditions noted are these: cited from earlier work.
Series [3] relates to severe frostbite. Put plainly: systematic literature review and meta-analysis of amputation rates in severe frostbite. The series is classed as in vivo, human. The protocol:
Frostbite is an injury caused by exposure of tissue to freezing temperatures. Severe frostbite may result in amputation leading to considerable morbidity. The objective was to identify and synthesize, via systematic literature review and meta-analysis (MA), evidence published on patient-level historical amputation rates in adults with severe frostbite treated with and without iloprost.
Methods: The literature review was conducted using Preferred Reporting Items for Systematic Reviews and Meta-Analyses (PRISMA) guidelines. It identified English-language articles published from Jan. 1, 2000 to Jul. 31, 2022 reporting amputation rates associated with iloprost and standard of care (SoC) treatments in severe frostbite. Study designs of interest were clinical trials (randomized and single arm), observational studies, and case series with at least 10 patients. MAs of proportions of patients with amputation were conducted. The published studies considered for the MA include:
Determination of Risk of Amputation: Table 1 discloses the historical amputation rates in severe frostbite patients. The studies listed in Table 1 was the basis of MA for determining the historical risk of amputation.
Sensitivity analyses reflect several ways of deriving the data (amputation rate for grade 3-4 frostbite) from the supplemental table in Cauchy 2011 (Cauchy et al., 2011).
Efficacy Proportion of Digits with Amputation: Data from 2 studies reporting the proportion of digits with amputations after receiving iloprost versus SoC for Grade 3/4 frostbite were included in the meta-analysis.

For series [4] the following is noted: iloprost infusion; ratio x:1; cited from earlier work.
Setting [5] is: Cauchy 2011, iloprost alone and iloprost+tPA combined (n=177).

On to `CC#CCC(C)[C@H](O)/C=C/[C@@H]1[C@H]2C/C(=C/CCCC(=O)O)C[C@H]2C[C@H]1O` (stereo partly drawn) [iloprost, (5E)-5-[(3aS,4R,5R,6aS)-5-hydroxy-4-[(E,3S)-3-hydroxy-4-methyloct-1-en-6-ynyl]-3,3a,4,5,6,6a-hexahydro-1H-pentalen-2-ylidene]pentanoic acid], for which, in series [1], the “% initial results for all of the IV bag preparations (range)” value was 94.2-94.9%. Also, the “Amputation Rate: patients considered likely to receive amputation” value with severe frostbite [2] (Cauchy 2011, open label RCT, severe (grades 3 or 4) frostbite, with SoC after rewarming, radiotracer anomaly in technetium scintigraphy after 8 days of treatment) was 0 patients. In addition, in the series on severe frostbite [2] (Cauchy 2011, Grade 3/4 frostbite, iloprost alone), the digits with amputation entry was “zero out of 78”. Moreover, in the series with severe frostbite [2] (setting [5]), the digit amputations is listed as 1.3% and the “number of digit amputations” value was 3. In addition, in the series on severe frostbite [2] (Crooks 2022, Grade 3-4 frostbite, minority of iloprost patients also received tPA (5 of 26)), the digits with amputation is given as 31.1%. Also, in the series with severe frostbite [2] (Poole 2021, iloprost plus SoC, with or without alteplase and heparin), the patients with amputation is recorded as 33%. Besides, the “safety events associated with iloprost” value in the series with severe frostbite [2] (three iloprost frostbite studies, headache, flushing, palpitations/tachycardia, nausea and vomiting) was “generally mild”. Besides, in the series on severe frostbite [3] (iloprost alone and iloprost plus tPA vs SoC, 95% CI: 0.001, 1.12, p=0.057, FIG. 4), the “odds ratio (OR) of digit amputation, iloprost+tPA patients of Cauchy 2011 added” value turned out to be 0.034. Also, the “odds ratio (OR) of digit amputation, base-case” value in the series with severe frostbite [3] (iloprost alone vs SoC, 2 studies meta-analyzed, 95% CI: 0.002-0.966, p=0.047, FIG. 3) came out at 0.047. Besides, the “proportion of patients with amputation, pooled arm-level data” value in the series on severe frostbite [3] (meta-analysis, random effects, 95% CI: 0-45%, FIG. 2) was 15%. For the same molecule, the “advantage for iloprost over SoC (reduction in amputation), base-case” value with severe frostbite [3] (studies with severe frostbite, no alprostadil, 95% CI: 6-73%, p=0.02) amounted to 39%. For the same molecule, in series [4], the “ratio of antiaggregatory:vasodilatory potency in vivo” value is listed as 2-7.
